Legend:
[1] = biological target: T1, Arabidopsis HST (Arabidopsis thaliana, UniProt Q1ACB3); experiment: HST total extraction (non TLC) assay, recombinant Arabidopsis HST from insect cells; type: biochemical
T1 construct: GST (factor Xa cleavage site) (N); made in house; host or cells: Sf9 insect cells (baculovirus, pAcG3X), membrane fraction
T1 sequence (Q1ACB3 70-386): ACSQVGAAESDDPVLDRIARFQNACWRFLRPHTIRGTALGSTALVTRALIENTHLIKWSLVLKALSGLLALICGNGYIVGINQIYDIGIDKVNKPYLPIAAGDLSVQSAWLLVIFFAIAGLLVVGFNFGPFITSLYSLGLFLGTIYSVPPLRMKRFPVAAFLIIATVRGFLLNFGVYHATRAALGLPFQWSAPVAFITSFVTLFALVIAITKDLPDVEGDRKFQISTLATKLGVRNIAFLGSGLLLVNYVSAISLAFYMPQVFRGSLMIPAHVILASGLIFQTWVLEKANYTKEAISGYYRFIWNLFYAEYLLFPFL

[2] = tested on: weeds; experiment: Glasshouse weed control, HST inhibitors alone and with A22, post-emergence; type: in vivo; settings: 336 h, 14 DAT, single replicate, read-out: % control score, Obs; for pest or weed control at 15.625 g/ha: 15.625 g/ha alone; for pest or weed control at 62.5 g/ha: 62.5 g/ha alone; for pest or weed control at 250 g/ha: 250 g/ha alone
In short: (§1)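 Weeds grown in glasshouse trays (24-27 C day, 18-21 C night, ~15 h photoperiod) and track-sprayed in 0.2% X77 at […], pre-emergence or post-emergence at about 7-12 d. HPPD inhibitor A22 applied at 2 g/ha alone or mixed with HST herbicides. Damage scored 0–100% at 14 DAT; synergy calculated by Colby formula.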

[3] = tested on: weeds; experiment: Glasshouse weed control, HST inhibitors alone and with A22, pre-emergence; type: in vivo; settings: 336 h, 14 DAT; for pest or weed control at 15.625 g/ha: HST inhibitor rate 15.625 g/ha; for pest or weed control at 62.5 g/ha: HST inhibitor rate 62.5 g/ha; for pest or weed control at 250 g/ha: HST inhibitor rate 250 g/ha
In short: as §1

[4] = BRAPL, read-out: BRAPL Obs, % control score
[5] = PANMI, read-out: PANMI Obs, % control score
[6] = SIDSP, read-out: SIDSP Obs, % control score
[7] = Digitaria sanguinalis, DIGSA, read-out: DIGSA Obs, % control score
[8] = Echinochloa crus-galli, ECHCG, read-out: ECHCG Obs, % control score
[9] = Setaria faberi, SETFA, read-out: SETFA Obs, % control score

O=c1c(-c2c(F)ccc(F)c2Cl)c(O)c2nccnc2n1CC(F)(F)F [Compound 2.17]
Estimated IC50 (ppm) [1]: 38 ppm
pest or weed control at 15.625 g/ha ([2]; BRAPL): 1%
pest or weed control at 62.5 g/ha ([2]; BRAPL): 15%
pest or weed control at 250 g/ha ([2]; BRAPL): 50%
pest or weed control at 15.625 g/ha ([2]; PANMI): 0%
pest or weed control at 62.5 g/ha ([2]; PANMI): 10%
pest or weed control at 250 g/ha ([2]; PANMI): 55%
pest or weed control at 15.625 g/ha ([2]; SIDSP): 5%
pest or weed control at 62.5 g/ha ([2]; SIDSP): 15%
pest or weed control at 250 g/ha ([2]; SIDSP): 50%
pest or weed control at 15.625 g/ha ([2]; Digitaria sanguinalis, DIGSA): 0%
pest or weed control at 62.5 g/ha ([2]; Digitaria sanguinalis, DIGSA): 5%
pest or weed control at 250 g/ha ([2]; Digitaria sanguinalis, DIGSA): 50%
pest or weed control at 15.625 g/ha ([2]; Echinochloa crus-galli, ECHCG): 0%
pest or weed control at 62.5 g/ha ([2]; Echinochloa crus-galli, ECHCG): 5%
pest or weed control at 250 g/ha ([2]; Echinochloa crus-galli, ECHCG): 40%
pest or weed control at 15.625 g/ha ([2]; Setaria faberi, SETFA): 0%
pest or weed control at 62.5 g/ha ([2]; Setaria faberi, SETFA): 10%
pest or weed control at 250 g/ha ([2]; Setaria faberi, SETFA): 40%
pest or weed control at 15.625 g/ha [3, 4]: 0%
pest or weed control at 62.5 g/ha [3, 4]: 0%
pest or weed control at 250 g/ha [3, 4]: 2%
pest or weed control at 15.625 g/ha [3, 5]: 0%
pest or weed control at 62.5 g/ha [3, 5]: 0%
pest or weed control at 250 g/ha [3, 5]: 0%
pest or weed control at 15.625 g/ha [3, 6]: 0%
pest or weed control at 62.5 g/ha [3, 6]: 0%
pest or weed control at 250 g/ha [3, 6]: 0%
pest or weed control at 15.625 g/ha [3, 7]: 0%
pest or weed control at 62.5 g/ha [3, 7]: 0%
pest or weed control at 250 g/ha [3, 7]: 0%
pest or weed control at 15.625 g/ha [3, 8]: 0%
pest or weed control at 62.5 g/ha [3, 8]: 0%
pest or weed control at 250 g/ha [3, 8]: 10%
pest or weed control at 15.625 g/ha [3, 9]: 0%
pest or weed control at 62.5 g/ha [3, 9]: 0%
pest or weed control at 250 g/ha [3, 9]: 10%

O=c1c(-c2c(Cl)cccc2C(F)(F)F)c(O)c2nccnc2n1CC(F)F [Compound 2.20]
Estimated IC50 (ppm) [1]: 16 ppm
pest or weed control at 15.625 g/ha ([2]; BRAPL): 30%
pest or weed control at 62.5 g/ha ([2]; BRAPL): 50%
pest or weed control at 250 g/ha ([2]; BRAPL): 95%
pest or weed control at 15.625 g/ha ([2]; PANMI): 15%
pest or weed control at 62.5 g/ha ([2]; PANMI): 45%
pest or weed control at 250 g/ha ([2]; PANMI): 85%
pest or weed control at 15.625 g/ha ([2]; SIDSP): 10%
pest or weed control at 62.5 g/ha ([2]; SIDSP): 50%
pest or weed control at 250 g/ha ([2]; SIDSP): 55%
pest or weed control at 15.625 g/ha ([2]; Digitaria sanguinalis, DIGSA): 20%
pest or weed control at 62.5 g/ha ([2]; Digitaria sanguinalis, DIGSA): 60%
pest or weed control at 250 g/ha ([2]; Digitaria sanguinalis, DIGSA): 80%
pest or weed control at 15.625 g/ha ([2]; Echinochloa crus-galli, ECHCG): 20%
pest or weed control at 62.5 g/ha ([2]; Echinochloa crus-galli, ECHCG): 60%
pest or weed control at 250 g/ha ([2]; Echinochloa crus-galli, ECHCG): 90%
pest or weed control at 15.625 g/ha ([2]; Setaria faberi, SETFA): 25%
pest or weed control at 62.5 g/ha ([2]; Setaria faberi, SETFA): 65%
pest or weed control at 250 g/ha ([2]; Setaria faberi, SETFA): 80%
pest or weed control at 15.625 g/ha [3, 4]: 0%
pest or weed control at 62.5 g/ha [3, 4]: 10%
pest or weed control at 250 g/ha [3, 4]: 60%
pest or weed control at 15.625 g/ha [3, 5]: 0%
pest or weed control at 62.5 g/ha [3, 5]: 2%
pest or weed control at 250 g/ha [3, 5]: 30%
pest or weed control at 15.625 g/ha [3, 6]: 0%
pest or weed control at 62.5 g/ha [3, 6]: 0%
pest or weed control at 250 g/ha [3, 6]: 5%
pest or weed control at 15.625 g/ha [3, 7]: 0%
pest or weed control at 62.5 g/ha [3, 7]: 0%
pest or weed control at 250 g/ha [3, 7]: 20%
pest or weed control at 15.625 g/ha [3, 8]: 1%
pest or weed control at 62.5 g/ha [3, 8]: 15%
pest or weed control at 250 g/ha [3, 8]: 90%
pest or weed control at 15.625 g/ha [3, 9]: 0%
pest or weed control at 62.5 g/ha [3, 9]: 20%
pest or weed control at 250 g/ha [3, 9]: 65%

O=S1(=O)C(c2ccc(Br)cc2C(F)(F)F)=C(O)c2nccnc2N1CC(F)F [Compound 3.5]
Estimated IC50 (ppm) [1]: 42 ppm
pest or weed control at 15.625 g/ha ([2]; BRAPL): 2%
pest or weed control at 62.5 g/ha ([2]; BRAPL): 30%
pest or weed control at 250 g/ha ([2]; BRAPL): 65%
pest or weed control at 15.625 g/ha ([2]; PANMI): 5%
pest or weed control at 62.5 g/ha ([2]; PANMI): 15%
pest or weed control at 250 g/ha ([2]; PANMI): 70%
pest or weed control at 15.625 g/ha ([2]; SIDSP): 2%
pest or weed control at 62.5 g/ha ([2]; SIDSP): 10%
pest or weed control at 250 g/ha ([2]; SIDSP): 10%
pest or weed control at 15.625 g/ha ([2]; Digitaria sanguinalis, DIGSA): 0%
pest or weed control at 62.5 g/ha ([2]; Digitaria sanguinalis, DIGSA): 0%
pest or weed control at 250 g/ha ([2]; Digitaria sanguinalis, DIGSA): 5%
pest or weed control at 15.625 g/ha ([2]; Echinochloa crus-galli, ECHCG): 5%
pest or weed control at 62.5 g/ha ([2]; Echinochloa crus-galli, ECHCG): 15%
pest or weed control at 250 g/ha ([2]; Echinochloa crus-galli, ECHCG): 30%
pest or weed control at 15.625 g/ha ([2]; Setaria faberi, SETFA): 2%
pest or weed control at 62.5 g/ha ([2]; Setaria faberi, SETFA): 10%
pest or weed control at 250 g/ha ([2]; Setaria faberi, SETFA): 40%
pest or weed control at 15.625 g/ha [3, 4]: 0%
pest or weed control at 62.5 g/ha [3, 4]: 0%
pest or weed control at 250 g/ha [3, 4]: 0%
pest or weed control at 15.625 g/ha [3, 5]: 0%
pest or weed control at 62.5 g/ha [3, 5]: 0%
pest or weed control at 250 g/ha [3, 5]: 0%
pest or weed control at 15.625 g/ha [3, 6]: 0%
pest or weed control at 62.5 g/ha [3, 6]: 0%
pest or weed control at 250 g/ha [3, 6]: 2%
pest or weed control at 15.625 g/ha [3, 7]: 0%
pest or weed control at 62.5 g/ha [3, 7]: 0%
pest or weed control at 250 g/ha [3, 7]: 0%
pest or weed control at 15.625 g/ha [3, 8]: 0%
pest or weed control at 62.5 g/ha [3, 8]: 0%
pest or weed control at 250 g/ha [3, 8]: 0%
pest or weed control at 15.625 g/ha [3, 9]: 0%
pest or weed control at 62.5 g/ha [3, 9]: 0%
pest or weed control at 250 g/ha [3, 9]: 0%

— patent US20110173718A1, “HERBICIDE TOLERANT PLANTS” (SYNGENTA CROP PROTECTION, INC., priority 2008, published 2011)
